Data as given in patent US8802664B2 (Bioproject, priority 2010, dated 2014).

target: T1, human H4 receptor (Homo sapiens, UniProt Q9H3N8); assay: [3H]Histamine binding on membranes of CHO cells stably expressing human H4 receptor; conditions: not given
T1 construct: expressed in transfected cells
Procedure: CHO cells stably expressing human H4 receptor were grown until sub-confluence and centrifuged at 300 g 15 minutes at 4° C. Pellets were resuspended in buffer I Tris-HCl 50 mM, MgCl2 10 mM, NaCl 140 mM, pH=7.4 supplemented by a 1/50 dilution of a mix of protease inhibitors. The obtained suspension is stirred gently and submitted to a […] exerted through a syringe. The cell lysate is then centrifuged at 300 g 15 minutes at 4° C. in order to eliminate nucleus and cell scraps. The obtained supernatant was then centrifuged at 48000 g for 30 minutes at 4° C. The final pellet is resuspended in buffer I with a potter homogenizer. Aliquots were frozen in liquid nitrogen and stored until use at −80° C. Protein content is measured by the Bradford method.
Defreezed membranes were diluted at a final concentration of 20 μg/180 μL/well in a binding buffer containing 50 mM Tris/HCl, 0.5 mM EDTA, pH=7.4 and distributed in 96 well polystyrene microplate. [^3H] […] Non specific binding was estimated in the presence of 10 μM BP1.2404 (JNJ 7777120). The reaction was terminated by filtration through GF/B filters pre-soaked 2 hours at 4° C. in […]. Filters were rinsed 3 times with 250 μl of ice cold incubation binding buffer.
The filter-bound radioactivity was measured in a liquid scintillation counter Microbeta TRILUX® with 50 μl of scintillation fluid.
The hH4 binding investigated by use of [^3H]

| SMILES | Ki or IC50 activity class [µM] |
| --- | --- |
| CN1CCC(OC(c2cccc(CCCCO)c2)c2nc3ccccc3s2)CC1 (centres unmarked) [Example 238, 4-{3-[benzothiazol-2-yl(1-methylpiperidin-4-yloxy)methyl]phenyl}butan-1-ol] | < 1 |
| CN1CCC(OC(c2cccc(N3CCC(F)C3)c2)c2nc3ccccc3s2)CC1 (centres unmarked) [Example 430, 2-[[3-(3-fluoropyrrolidin-1-yl)phenyl](1-methylpiperidin-4-yloxy)methyl]benzothiazole] | < 0.03 |
| c1csc(C(OC2CCNCC2)c2nc3ccccc3[nH]2)c1 (centres unmarked) [Example 544] | < 1 |
| CN1CCC(OC(c2cccc(OC3CCNC3)c2)c2nc3ccccc3s2)CC1 (centres unmarked) [Example 382, 2-{(1-methylpiperidin-4-yloxy)[3-(pyrrolidin-3-yloxy)phenyl]methyl}benzothiazole] | < 0.03 |
| CC(=O)NC1CCN(c2cccc(C(OC3CCN(C)CC3)c3nc4ccccc4s3)c2)C1 (centres unmarked) [Example 408, N-(1-{3-[benzothiazol-2-yl(1-methylpiperidin-4-yloxy)methyl]phenyl}pyrrolidin-3-yl)acetamide] | < 0.3 |
| CN1CCC(OC(c2cccc(C=CC(=O)OC(C)(C)C)c2)c2nc3ccccc3s2)CC1 (centres unmarked) [Example 205, 3-{3-[benzothiazol-2-yl(1-methylpiperidin-4-yloxy)methyl]phenyl}acrylic acid tert-butyl ester] | < 1 |
| COc1cccc(-c2cccc(C(OC3CCN(C)CC3)c3nc4ccccc4s3)c2)c1 (centres unmarked) [Example 99, 2-[(3′-methoxybiphenyl-3-yl)(1-methylpiperidin-4-yloxy)methyl]benzothiazole] | < 0.3 |
| CC(=O)COCc1cccc(C(OC2CCN(C)CC2)c2nc3ccccc3s2)c1 (centres unmarked) [Example 270, 1-{3-[benzothiazol-2-yl(1-methylpiperidin-4-yloxy)methyl]benzyloxy}propan-2-one] | < 1 |
| CN1CCC(OC(c2cccc(OCc3ccco3)c2)c2nc3ccccc3s2)CC1 (centres unmarked) [Example 267, 2-[[3-(furan-2-ylmethoxy)phenyl](1-methylpiperidin-4-yloxy)methyl]benzothiazole] | < 0.03 |
| Cc1ccc2sc(C(OC3CCN(C)CC3)c3ccccc3)nc2c1 (centres unmarked) [Example 29, 5-methyl-2-[(1-methylpiperidin-4-yloxy)phenylmethyl]benzothiazole] | < 1 |
| CCCOc1cccc(C(NC2CCN(C)CC2)c2nc3ccccc3s2)c1 (single isomer, unassigned) [Example 57, [benzothiazol-2-yl(3-propoxyphenyl)methyl](1-methylpiperidin-4-yl)amine] | < 0.03 |
| CN1CCC(OC(c2cccc(OCCC(F)(F)F)c2)c2nc3ccccc3s2)CC1 (centres unmarked) [Example 178, 2-{(1-methylpiperidin-4-yloxy)[3-(3,3,3-trifluoro-propoxy)phenyl]methyl}benzothiazole] | < 0.3 |
| CSc1cccc(-c2cccc(C(OC3CCN(C)CC3)c3nc4ccccc4s3)c2)c1 (centres unmarked) [Example 128, 2-[(1-methylpiperidin-4-yloxy)(3′-methylsulfanylbiphenyl-3-yl)methyl]benzothiazole] | < 0.3 |
| CN1CCC(OC(c2cccc(-c3ccc(F)cc3)c2)c2nc3ccccc3s2)CC1 (centres unmarked) [Example 136, 2-[(4′-fluorobiphenyl-3-yl)(1-methylpiperidin-4-yloxy)methyl]benzothiazole] | < 0.3 |
| CN1CCC(OC(c2cccc(OC3CCC(N)CC3)c2)c2nc3ccccc3s2)CC1 (centres unmarked) [Example 477] | < 1 |
| COC(=O)CC1(CSc2cccc(C(OC3CCN(C)CC3)c3nc4ccccc4s3)c2)CC1 (centres unmarked) [Example 239, (1-{3-[benzothiazol-2-yl(1-methylpiperidin-4-yloxy)methyl]phenylsulfanylmethyl}-cyclopropyl)acetic acid methyl ester] | < 1 |
| CN1CCC(OC(c2cccc(SCCCO)c2)c2nc3ccccc3s2)CC1 (centres unmarked) [Example 254, 3-{3-[benzothiazol-2-yl(1-methylpiperidin-4-yloxy)methyl]phenylsulfanyl}propan-1-ol] | < 0.03 |
| CN1CCC(OC(c2cccc(-c3ccccc3CO)c2)c2nc3ccccc3s2)CC1 (centres unmarked) [Example 127, {3′-[benzothiazol-2-yl(1-methylpiperidin-4-yloxy)methyl]biphenyl-2-yl}methanol] | < 0.3 |
| CN1CCC(OC(c2cccs2)c2nc3ccccc3s2)CC1 (centres unmarked) [Example 13, 2-[(1-methylpiperidin-4-yloxy)thiophen-2-ylmethyl]benzothiazole] | < 0.3 |
| CN1CCC(OC(c2cccc(N3CC4CC(F)CC4C3)c2)c2nc3ccccc3s2)CC1 (centres unmarked) [Example 492] | < 1 |
| Cc1cc(C(NC2CCN(C)CC2)c2nc3ccccc3s2)ccc1F (centres unmarked) [Example 35, [benzothiazol-2-yl(4-fluoro-3-methyl-phenyl)methyl](1-methylpiperidin-4-yl)amine] | < 1 |
| CN1CCC(OC(c2cccc(N3CC(O)C3)c2)c2nc3ccccc3s2)CC1 (centres unmarked) [Example 403, 1-{3-[benzothiazol-2-yl(1-methylpiperidin-4-yloxy)methyl]phenyl}azetidin-3-ol] | < 0.3 |

More lines, now with the values ahead:

| Ki or IC50 activity class [µM] | SMILES |
| --- | --- |
| < 0.03 | CN1CCC(OC(c2cccc(SCC(=O)NCCN)c2)c2nc3ccccc3[nH]2)CC1 (centres unmarked) [Example 436, N-(2-aminoethyl)-2-{3-[(1H-benzimidazol-2-yl)(1-methylpiperidin-4-yloxy)methyl]phenylsulfanyl}acetamide] |
| < 0.3 | CN1CCC(NC(c2cccc(F)c2)c2nc3ccccc3[nH]2)CC1 (centres unmarked) [Example 74, [(1H-benzimidazol-2-yl)(3-fluorophenyl)methyl](1-methylpiperidin-4-yl)amine] |
| < 0.03 | Cc1ccc(C(OC2CCN(C)CC2)c2nc3ccccc3[nH]2)c(F)c1 (single isomer, unassigned) [Example 533, 2-[(2-fluoro-4-methylphenyl)(1-methylpiperidin-4-yloxy)methyl]-1H-benzimidazole] |
| < 0.03 | CN1CCC(OC(c2cccc(C#CCCNC(=N)N)c2)c2nc3ccccc3[nH]2)CC1 (centres unmarked) [Example 393, N-(4-{3-[(1H-benzimidazol-2-yl)(1-methylpiperidin-4-yloxy)methyl]phenyl}but-3-ynyl)guanidine] |
| < 1 | CN1CCC(OC(c2ccc3c(c2)OC(F)(F)O3)c2nc3ccccc3[nH]2)CC1 (centres unmarked) [Example 521] |
| < 1 | CN1CCC(OC(c2cccc(CO)c2)c2nc3ccccc3s2)CC1 (centres unmarked) [Example 207, {3-[benzothiazol-2-yl(1-methylpiperidin-4-yloxy)methyl]phenyl}methanol] |
| < 0.3 | CN1CCC(OC(c2cccc(C#CCCN)c2)c2nc3ccccc3[nH]2)CC1 (centres unmarked) [Example 286, 4-{3-[(1H-benzimidazol-2-yl)(1-methylpiperidin-4-yloxy)methyl]phenyl}but-3-ynylamine] |
| < 1 | CN1CCC(OC(c2cccc(SCCNC3=NCCS3)c2)c2nc3ccccc3[nH]2)CC1 (centres unmarked) [Example 299, (2-{3-[(1H-benzimidazol-2-yl)(1-methylpiperidin-4-yloxy)methyl]phenyl-sulfanyl}ethyl)(4,5-dihydrothiazol-2-yl)amine] |
| < 0.3 | CN1CCC(OC(c2nc3ccccc3[nH]2)c2cc(C(F)(F)F)ccc2F)CC1 (centres unmarked) [Example 498] |
| < 0.03 | CN1CCC(OC(c2cccc(SCC3NC(N)=NC3=O)c2)c2nc3ccccc3[nH]2)CC1 (centres unmarked) [Example 479, 2-amino-5-{3-[(1H-benzimidazol-2-yl)(1-methylpiperidin-4-yloxy)methyl]phenylsulfanylmethyl}-1,5-dihydroimidazol-4-one] |
| < 0.03 | CN1CCC(OC(c2cccc(C#CCNC(=N)N)c2)c2nc3ccccc3[nH]2)CC1 (centres unmarked) [Example 418, N-(3-{3-[(1H-benzimidazol-2-yl)(1-methylpiperidin-4-yloxy)methyl]phenyl}prop-2-ynyl)guanidine] |
| < 1 | Cc1ccc(C(OC2CCN(C)CC2)c2nc3ccccc3[nH]2)cc1 (single isomer, unassigned) [Example 252, 2-[(1-methylpiperidin-4-yloxy)-p-tolylmethyl]-1H-benzimidazole] |
| < 1 | CN1CCC(OC(c2ccc([N+](=O)[O-])cc2)c2nc3ccccc3[nH]2)CC1 (centres unmarked) [Example 447, 2-[(1-methylpiperidin-4-yloxy)(4-nitrophenyl)methyl]-1H-benzimidazole] |
| < 0.3 | CN1CCC(OC(c2cccc(-c3cccc(F)c3)c2)c2nc3ccccc3[nH]2)CC1 (centres unmarked) [Example 109, 2-[(3′-fluoro-biphenyl-3-yl)(1-methylpiperidin-4-yloxy)methyl]-1H-benzimidazole] |
| < 0.03 | CN1CCC(OC(c2cccc(SCCCNC(=N)N)c2)c2nc3ccccc3[nH]2)CC1 (centres unmarked) [Example 441, N-(3-{3-[(1H-benzimidazol-2-yl)(1-methylpiperidin-4-yloxy)methyl]phenylsulfanyl}propyl)guanidine] |

same assay, conditions: human H4 receptor; evaluated in the GTPγ[35S] assay or in the [3H]histamine binding assay (not stated which per compound); Ki or IC50 class

| Ki or IC50 activity class [µM] | SMILES |
| --- | --- |
| < 0.03 | CN1CCC(OC(c2cccc(CCCNC(=N)N)c2)c2nc3ccccc3[nH]2)CC1 (centres unmarked) [Example 321, N-(3-{3-[(1H-benzimidazol-2-yl)(1-methylpiperidin-4-yloxy)methyl]phenyl}propyl)guanidine] |
